Results reported in US10750743B2, “Pyridazinone herbicides” (E.I. DU PONT DE NEMOURS AND COMPANY, priority 2015, dated 2020).

Tests used:
Type in all cases: in vivo
[1] = system: sedge, umbrella (small-flower umbrella sedge, Cyperus difformis); assay: Test B flooded paddy test, visual rating; conditions: Flood, 250 g ai/ha, applied to paddy water, rated after 13 to 15 d
Method in brief: (§1)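 Plants grown to the 2-leaf stage. At treatment, pots were flooded to 3 cm above the soil, compound was applied directly to the paddy water, and that depth was held throughout. After 13 to 15 d in the greenhouse, response was rated visually against controls on a 0 (no effect) to 100 (complete control) scale.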

[2] = system: barnyardgrass (Echinochloa crus-galli); assay: Test B flooded paddy test, visual rating; conditions: Flood, 250 g ai/ha, applied to paddy water, rated after 13 to 15 d
Method in brief: as §1

rice (Oryza sativa) = assay: Test B flooded paddy test, visual rating; conditions: Flood, 250 g ai/ha, applied to paddy water, rated after 13 to 15 d
Method in brief: as §1

[3] = system: ducksalad (Heteranthera limosa); assay: Test B flooded paddy test, visual rating; conditions: Flood, 250 g ai/ha, applied to paddy water, rated after 13 to 15 d
Method in brief: as §1

[4] = system: foxtail, giant (giant foxtail, Setaria faberii); assay: Test A preemergence, directed soil spray, visual injury rating; conditions: 0 is no effect, 100 is complete control
Method in brief: (§2)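 Compounds in a surfactant-containing solvent were applied as a directed soil spray preemergence, or postemergence to plants 2-10 cm tall at the one- to two-leaf stage, in loam-sand blend. After about 10 d in the greenhouse, injury was rated visually against untreated controls on a 0-100 scale (100 = complete control).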

[5] = system: ryegrass, It. (Italian ryegrass, Lolium multiflorum); assay: as above; conditions: 0 is no effect, 100 is complete control
Method in brief: as §2

[6] = system: ragweed (common ragweed, Ambrosia elatior); assay: as above; conditions: 0 is no effect, 100 is complete control
Method in brief: as §2

[7] = system: barnyardgrass (Echinochloa crus-galli); assay: as above; conditions: 0 is no effect, 100 is complete control
Method in brief: as §2

[8] = system: pigweed (Amaranthus retroflexus); assay: as above; conditions: 0 is no effect, 100 is complete control
Method in brief: as §2

kochia (Kochia scoparia) [9] = assay: as above; conditions: 0 is no effect, 100 is complete control
Method in brief: as §2

[10] = system: wheat (Triticum aestivum); assay: Test A postemergence application, visual injury rating; conditions: for Wheat plant response rating: 0 to 100 scale, 0 no effect, 100 complete control
Method in brief: as §2

[11] = system: foxtail, giant (giant foxtail, Setaria faberii); assay: as above; conditions: for Foxtail, Giant plant response rating: 0 to 100 scale, 0 no effect, 100 complete control
Method in brief: as §2

corn (Zea mays) = assay: as above; conditions: for Corn plant response rating: 0 to 100 scale, 0 no effect, 100 complete control
Method in brief: as §2

[12] = system: galium (catchweed bedstraw, Galium aparine); assay: as above; conditions: for Galium plant response rating: 0 to 100 scale, 0 no effect, 100 complete control
Method in brief: as §2

[13] = system: ryegrass, It. (Italian ryegrass, Lolium multiflorum); assay: as above; conditions: for Ryegrass, It. plant response rating: 0 to 100 scale, 0 no effect, 100 complete control
Method in brief: as §2

[14] = system: blackgrass (Alopecurus myosuroides); assay: as above; conditions: 0 to 100 scale, 0 no effect, 100 complete control
Method in brief: as §2

[15] = system: ragweed (common ragweed, Ambrosia elatior); assay: as above; conditions: for Ragweed plant response rating: 0 to 100 scale, 0 no effect, 100 complete control
Method in brief: as §2

[16] = system: barnyardgrass (Echinochloa crus-galli); assay: as above; conditions: 0 to 100 scale, 0 no effect, 100 complete control
Method in brief: as §2

[17] = system: pigweed (Amaranthus retroflexus); assay: as above; conditions: for Pigweed plant response rating: 0 to 100 scale, 0 no effect, 100 complete control
Method in brief: as §2

kochia (Kochia scoparia) [18] = assay: as above; conditions: for Kochia plant response rating: 0 to 100 scale, 0 no effect, 100 complete control
Method in brief: as §2

[19] = 31 g ai/ha, 0 is no effect, 100 is complete control

SMILES	Sedge, Umbrella plant response rating (0 to 100 scale, 0 is no effect, 100 is complete control) [1]	Barnyardgrass plant response rating (0 to 100 scale, 0 is no effect, 100 is complete control) [2]	Rice plant response rating (0 to 100 scale, 0 is no effect, 100 is complete control) (rice (Oryza sativa))	Ducksalad plant response rating (0 to 100 scale, 0 is no effect, 100 is complete control) [3]	Plant response rating (0 to 100 scale), Foxtail, Giant ([4]; 125 g ai/ha)	Plant response rating (0 to 100 scale), Ryegrass, It. ([5]; 125 g ai/ha)	Plant response rating (0 to 100 scale), Ragweed ([6]; 125 g ai/ha)	Plant response rating (0 to 100 scale), Barnyardgrass ([7]; 125 g ai/ha)	Plant response rating (0 to 100 scale), Pigweed ([8]; 125 g ai/ha)	Plant response rating (0 to 100 scale), Kochia (kochia (Kochia scoparia) [9]; 125 g ai/ha)	Wheat plant response rating ([10]; 125 g ai/ha)	Foxtail, Giant plant response rating ([11]; 125 g ai/ha)	Corn plant response rating (corn (Zea mays); 125 g ai/ha)	Galium plant response rating ([12]; 125 g ai/ha)	Ryegrass, It. plant response rating ([13]; 125 g ai/ha)	Blackgrass plant response rating ([14]; 125 g ai/ha)	Ragweed plant response rating ([15]; 125 g ai/ha)	Barnyardgrass plant response rating ([16]; 125 g ai/ha)	Pigweed plant response rating ([17]; 125 g ai/ha)	Kochia plant response rating (kochia (Kochia scoparia) [18]; 125 g ai/ha)	further results
Cc1nn(C)c(=O)c(-c2cccc3scnc23)c1O [Compound 1]	0	0	0	0	0	0	0	0	0	0	0	0	0	0	0	0	0	0	0	0	Plant response rating (0 to 100 scale), Foxtail, Giant ([4]; 500 g ai/ha): 20; Plant response rating (0 to 100 scale), Ryegrass, It. ([5]; 500 g ai/ha): 70; Plant response rating (0 to 100 scale), Ragweed ([6]; 500 g ai/ha): 20; Plant response rating (0 to 100 scale), Barnyardgrass ([7]; 500 g ai/ha): 20; Plant response rating (0 to 100 scale), Pigweed ([8]; 500 g ai/ha): 0; Plant response rating (0 to 100 scale), Kochia (kochia (Kochia scoparia) [9]; 500 g ai/ha): 0; Wheat plant response rating ([10]; 500 g ai/ha): 0; Foxtail, Giant plant response rating ([11]; 500 g ai/ha): 0; Corn plant response rating (corn (Zea mays); 500 g ai/ha): 0; Galium plant response rating ([12]; 500 g ai/ha): 30; Ryegrass, It. plant response rating ([13]; 500 g ai/ha): 40; Blackgrass plant response rating ([14]; 500 g ai/ha): 10; Ragweed plant response rating ([15]; 500 g ai/ha): 10; Barnyardgrass plant response rating ([16]; 500 g ai/ha): 0; Pigweed plant response rating ([17]; 500 g ai/ha): 10; Kochia plant response rating (kochia (Kochia scoparia) [18]; 500 g ai/ha): 0
Cn1nc(Cl)c(O)c(-c2ccc(F)c3ccoc23)c1=O [Compound 70]	0	0	0	0	50	100	0	90	30	40	0	40	0	90	100	30	90	90	70	90	Plant response rating (0 to 100 scale), Foxtail, Giant ([4]; 31 g ai/ha): 10; Plant response rating (0 to 100 scale), Ryegrass, It. ([5]; 31 g ai/ha): 70; Plant response rating (0 to 100 scale), Ragweed ([6]; 31 g ai/ha): 0; Plant response rating (0 to 100 scale), Barnyardgrass ([7]; 31 g ai/ha): 40; Plant response rating (0 to 100 scale), Pigweed ([8]; 31 g ai/ha): 10; Plant response rating (0 to 100 scale), Kochia (kochia (Kochia scoparia) [9]; 31 g ai/ha): 0; Plant response rating (0 to 100 scale), Wheat [10, 19]: 0; Plant response rating (0 to 100 scale), Foxtail, Giant [11, 19]: 10; Plant response rating (0 to 100 scale), Corn (corn (Zea mays); [19]): 0; Plant response rating (0 to 100 scale), Galium [12, 19]: 50; Plant response rating (0 to 100 scale), Ryegrass, It. [13, 19]: 70; Blackgrass plant response rating ([14]; 31 g ai/ha): 0; Plant response rating (0 to 100 scale), Ragweed [15, 19]: 10; Barnyardgrass plant response rating ([16]; 31 g ai/ha): 10; Plant response rating (0 to 100 scale), Pigweed [17, 19]: 10; Plant response rating (0 to 100 scale), Kochia (kochia (Kochia scoparia) [18]; [19]): 40
